Values joined by “and” are separate entries in the source; they are usually repeats but may differ in a detail not shown here. Equal values may be shown once. Read-outs that look alike come from different tables or passages of the source.
Target: B. taurus (heart) complex I (Bos taurus, UniProt P03887+P17694+P42026)
Assay: biochemical
Type: biochemical
Conditions: for IC50: heart mitochondria, read-out: B. taurus Complex I IC50; for activity at 0.0001 µM / Complex I activity, dose-response data / activity at 0.0005 µM / activity at 0.001 µM / activity at 0.0025 µM / activity at 0.005 µM / activity at 0.013 µM / activity at 0.025 µM / activity at 0.063 µM / activity at 0.125 µM / activity at 0.313 µM / activity at 0.625 µM / activity at 1.5 µM / activity at 3 µM / activity at 15 µM / activity at 37.5 µM / activity at 75 µM: B. taurus; for activity at 0.0001 µM / activity at 0.0005 µM / activity at 0.001 µM / activity at 0.0025 µM / activity at 0.005 µM / activity at 0.013 µM / activity at 0.025 µM / activity at 0.063 µM / activity at 0.125 µM / activity at 0.313 µM / activity at 0.625 µM / activity at 1.5 µM / activity at 3 µM / activity at 15 µM / activity at 37.5 µM / activity at 75 µM: read-out: Complex I activity, dose-response data
Method in brief: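 Complex I activity followed as DCIP reduction (600 nm, 30 s reads, 15 min) with 80 μM NADH and 60 μM decylubiquinone in 25 mM KPi pH 7.5 containing 2 μM antimycin A and 2 mM KCN. Freeze-thawed mouse or bovine heart mitochondria at 0.2 mg/mL; initial-rate percent of solvent control, single-point 100 μM or dose-response.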

[1] = dose 0.0001 µM, Mean of replicates
[2] = dose 0.0001 µM, individual replicates (Rep)
[3] = dose 0.0005 µM, Mean of replicates
[4] = dose 0.0005 µM, individual replicates (Rep)
[5] = dose 0.001 µM, Mean of replicates
[6] = dose 0.001 µM, individual replicates (Rep)
[7] = dose 0.0025 µM, Mean of replicates
[8] = dose 0.0025 µM, individual replicates (Rep)
[9] = dose 0.005 µM, Mean of replicates
[10] = dose 0.005 µM, individual replicates (Rep)
[11] = dose 0.013 µM, Mean of replicates
[12] = dose 0.013 µM, individual replicates (Rep)
[13] = dose 0.025 µM, Mean of replicates
[14] = dose 0.025 µM, individual replicates (Rep)
[15] = dose 0.063 µM, Mean of replicates
[16] = dose 0.063 µM, individual replicates (Rep)
[17] = dose 0.125 µM, Mean of replicates
[18] = dose 0.125 µM, individual replicates (Rep)
[19] = dose 0.313 µM, Mean of replicates
[20] = dose 0.313 µM, individual replicates (Rep)
[21] = dose 0.625 µM, Mean of replicates
[22] = dose 0.625 µM, individual replicates (Rep)
[23] = dose 1.5 µM, Mean of replicates
[24] = dose 1.5 µM, individual replicates (Rep)
[25] = dose 3 µM, individual replicates (Rep)
[26] = dose 15 µM, individual replicates (Rep)
[27] = dose 37.5 µM, Mean of replicates
[28] = dose 37.5 µM, individual replicates (Rep)
[29] = dose 75 µM, individual replicates (Rep)

Chain of B. taurus (heart) complex I (P03887 whole entry): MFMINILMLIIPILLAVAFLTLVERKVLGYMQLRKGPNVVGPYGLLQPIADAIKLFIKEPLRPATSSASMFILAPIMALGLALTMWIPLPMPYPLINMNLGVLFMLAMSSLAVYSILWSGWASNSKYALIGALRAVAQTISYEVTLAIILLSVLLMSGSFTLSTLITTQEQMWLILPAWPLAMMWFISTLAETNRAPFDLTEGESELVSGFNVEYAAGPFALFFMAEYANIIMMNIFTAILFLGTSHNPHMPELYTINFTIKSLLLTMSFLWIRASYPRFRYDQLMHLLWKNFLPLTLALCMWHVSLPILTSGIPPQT
Chain of B. taurus (heart) complex I (P17694 34-463): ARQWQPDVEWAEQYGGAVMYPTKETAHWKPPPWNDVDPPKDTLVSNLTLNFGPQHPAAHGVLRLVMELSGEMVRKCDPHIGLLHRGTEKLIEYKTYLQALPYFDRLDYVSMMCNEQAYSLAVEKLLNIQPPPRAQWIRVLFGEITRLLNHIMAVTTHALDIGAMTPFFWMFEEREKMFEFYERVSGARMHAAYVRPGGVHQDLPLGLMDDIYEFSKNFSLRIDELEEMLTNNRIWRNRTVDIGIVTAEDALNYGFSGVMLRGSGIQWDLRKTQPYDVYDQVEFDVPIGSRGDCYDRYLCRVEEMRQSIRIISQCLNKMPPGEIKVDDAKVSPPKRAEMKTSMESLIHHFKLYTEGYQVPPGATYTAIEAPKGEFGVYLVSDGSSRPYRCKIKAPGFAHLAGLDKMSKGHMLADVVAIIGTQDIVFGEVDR
Chain of B. taurus (heart) complex I (P42026 38-216): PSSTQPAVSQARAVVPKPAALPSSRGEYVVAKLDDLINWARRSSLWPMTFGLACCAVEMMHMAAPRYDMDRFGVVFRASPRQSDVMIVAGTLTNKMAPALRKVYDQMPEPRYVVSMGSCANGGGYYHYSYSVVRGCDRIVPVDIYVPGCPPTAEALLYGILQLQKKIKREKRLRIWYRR

## CC(C)(C)c1ccc(CCOc2ncnc3ccccc23)cc1 [Fenazaquin, reference compound]
  IC50: 0.024 µM

## COc1cc2c(cc1OC)C(c1ccc(-c3ccc(Cl)c(Cl)c3)o1)=NCC2 [NPD3577]
[1]
  activity at 0.0001 µM: 105%
[2]
  Complex I activity, dose-response data: 103.121 and 101.731 and 110.652
  activity at 0.0001 µM: 106%
[3]
  activity at 0.0005 µM: 100%
[4]
  activity at 0.0005 µM: 100%
[5]
  activity at 0.001 µM: 106%
[6]
  Complex I activity, dose-response data: 115.208 and 104.399 and 94.945 and 110.770
[7]
  activity at 0.0025 µM: 109%
[8]
  Complex I activity, dose-response data: 105.176 and 104.207 and 109.459
  activity at 0.0025 µM: 117%
[9]
  activity at 0.005 µM: 109%
[10]
  Complex I activity, dose-response data: 109.688 and 97.845 and 112.943
  activity at 0.005 µM: 116%
[11]
  activity at 0.013 µM: 106%
[12]
  Complex I activity, dose-response data: 116.009 and 85.825 and 105.823 and 114.478
[13]
  activity at 0.025 µM: 115%
[14]
  Complex I activity, dose-response data: 117.057 and 109.262 and 110.097
  activity at 0.025 µM: 124%
[15]
  activity at 0.063 µM: 111%
[16]
  Complex I activity, dose-response data: 116.393 and 107.485 and 112.565
  activity at 0.063 µM: 107%
[17]
  activity at 0.125 µM: 106%
[18]
  Complex I activity, dose-response data: 115.491 and 103.072 and 105.491
  activity at 0.125 µM: 100%
[19]
  activity at 0.313 µM: 109%
[20]
  Complex I activity, dose-response data: 109.249 and 104.276 and 103.070
  activity at 0.313 µM: 118%
[21]
  activity at 0.625 µM: 99%
[22]
  Complex I activity, dose-response data: 89.823 and 107.117 and 107.828
  activity at 0.625 µM: 91.2%
[23]
  activity at 1.5 µM: 100%
[24]
  activity at 1.5 µM: 100%
Dose 3 µM, Mean of replicates
  activity at 3 µM: 95.5%
[25]
  Complex I activity, dose-response data: 93.418 and 99.797 and 99.095
  activity at 3 µM: 89.6%
Dose 15 µM, Mean of replicates
  activity at 15 µM: 43.4%
[26]
  Complex I activity, dose-response data: 55.501 and 46.406 and 43.941 and 27.922
[27]
  activity at 37.5 µM: 26.1%
[28]
  Complex I activity, dose-response data: 16.844 and 31.768 and 25.172
  activity at 37.5 µM: 30.8%
Dose 75 µM, Mean of replicates
  activity at 75 µM: 23.8%
[29]
  Complex I activity, dose-response data: 15.504 and 26.993 and 22.808
  activity at 75 µM: 30%
  IC50: 9.49 µM

## COc1cc2c(cc1OC)C(/C=C/c1ccc(N(C)C)cc1)=NCC2 [NPD6303]
[1]
  activity at 0.0001 µM: 91.7%
[2]
  Complex I activity, dose-response data: 93.903 and 88.856 and 86.554
  activity at 0.0001 µM: 97.5%
[3]
  activity at 0.0005 µM: 92.3%
[4]
  Complex I activity, dose-response data: 92.515 and 88.363 and 93.860
  activity at 0.0005 µM: 94.5%
[5]
  activity at 0.001 µM: 92%
[6]
  Complex I activity, dose-response data: 95.392 and 88.341 and 90.155
  activity at 0.001 µM: 93.9%
[7]
  activity at 0.0025 µM: 91.7%
[8]
  Complex I activity, dose-response data: 92.736 and 89.606 and 94.534
  activity at 0.0025 µM: 89.8%
[9]
  activity at 0.005 µM: 93.7%
[10]
  Complex I activity, dose-response data: 98.592 and 81.676 and 99.845
  activity at 0.005 µM: 94.8%
[11]
  activity at 0.013 µM: 94.7%
[12]
  Complex I activity, dose-response data: 95.041 and 103.924 and 78.354 and 101.425
[13]
  activity at 0.025 µM: 91.5%
[14]
  Complex I activity, dose-response data: 93.260 and 100.684 and 76.425 and 95.829
[15]
  activity at 0.063 µM: 90.4%
[16]
  Complex I activity, dose-response data: 90.670 and 95.493 and 75.718 and 99.663
[17]
  activity at 0.125 µM: 88.5%
[18]
  Complex I activity, dose-response data: 91.682 and 93.823 and 68.860 and 99.585
[19]
  activity at 0.313 µM: 88.2%
[20]
  Complex I activity, dose-response data: 96.036 and 78.933 and 86.373
  activity at 0.313 µM: 91.3%
[21]
  activity at 0.625 µM: 97.3%
[22]
  Complex I activity, dose-response data: 107.704 and 91.974 and 95.636
  activity at 0.625 µM: 93.9%
[23]
  activity at 1.5 µM: 93.1%
[24]
  Complex I activity, dose-response data: 104.204 and 86.663 and 89.601
  activity at 1.5 µM: 92.1%
Dose 3 µM, Mean of replicates
  activity at 3 µM: 91.2%
[25]
  Complex I activity, dose-response data: 87.892 and 104.226 and 89.807 and 82.898
Dose 15 µM, Mean of replicates
  activity at 15 µM: 76.4%
[26]
  Complex I activity, dose-response data: 86.661 and 69.921 and 66.695
  activity at 15 µM: 82.4%
[27]
  activity at 37.5 µM: 51.7%
[28]
  Complex I activity, dose-response data: 53.115 and 63.240 and 41.319 and 49.280
Dose 75 µM, Mean of replicates
  activity at 75 µM: 29.9%
[29]
  Complex I activity, dose-response data: 35.395 and 24.387 and 27.438
  activity at 75 µM: 32.4%
  IC50: 34.3 µM

## COc1cc2c(cc1OC)C(C(C)c1ccc(CC(C)C)cc1)=NCC2 (stereo not drawn) [NPD10504]
[1]
  activity at 0.0001 µM: 107%
[2]
  Complex I activity, dose-response data: 117.793 and 105.069 and 91.702 and 112.227
[3]
  activity at 0.0005 µM: 106%
[4]
  Complex I activity, dose-response data: 109.504 and 97.187 and 111.197
  activity at 0.0005 µM: 106%
[5]
  activity at 0.001 µM: 99.9%
[6]
  Complex I activity, dose-response data: 98.069 and 105.385 and 87.764 and 108.494
[7]
  activity at 0.0025 µM: 103%
[8]
  Complex I activity, dose-response data: 100.000 and 97.046 and 110.425
  activity at 0.0025 µM: 106%
[9]
  activity at 0.005 µM: 95.2%
[10]
  Complex I activity, dose-response data: 92.608 and 94.796 and 95.624
  activity at 0.005 µM: 97.7%
[11]
  activity at 0.013 µM: 101%
[12]
  Complex I activity, dose-response data: 117.931 and 88.068 and 92.546 and 105.663
[13]
  activity at 0.025 µM: 101%
[14]
  Complex I activity, dose-response data: 94.298 and 94.233 and 109.524
  activity at 0.025 µM: 107%
[15]
  activity at 0.063 µM: 90.7%
[16]
  Complex I activity, dose-response data: 92.397 and 91.561 and 90.734
  activity at 0.063 µM: 88%
[17]
  activity at 0.125 µM: 83.6%
[18]
  Complex I activity, dose-response data: 80.676 and 85.091 and 80.824
  activity at 0.125 µM: 87.9%
[19]
  activity at 0.313 µM: 98%
[20]
  Complex I activity, dose-response data: 97.994 and 101.828 and 86.358
  activity at 0.313 µM: 106%
[21]
  activity at 0.625 µM: 101%
[22]
  Complex I activity, dose-response data: 121.834 and 83.881 and 99.417 and 98.267
[23]
  activity at 1.5 µM: 96.4%
[24]
  Complex I activity, dose-response data: 115.721 and 89.117 and 89.942 and 90.667
Dose 3 µM, Mean of replicates
  activity at 3 µM: 85.9%
[25]
  Complex I activity, dose-response data: 100.146 and 69.610 and 88.192 and 85.467
Dose 15 µM, Mean of replicates
  activity at 15 µM: 36.5%
[26]
  Complex I activity, dose-response data: 38.809 and 32.507 and 35.200
  activity at 15 µM: 39.3%
[27]
  activity at 37.5 µM: 5.69%
[28]
  Complex I activity, dose-response data: 3.348 and 10.986 and 0.292 and 8.133
Dose 75 µM, Mean of replicates
  activity at 75 µM: 3.63%
[29]
  Complex I activity, dose-response data: 0.000 and 11.602 and 2.933
  IC50: 11.3 µM

Source: PMC11079024, “Identification of a family of species-selective complex I inhibitors as potential anthelmintics” (Nature Communications, 2024)
